Measured values: patent US5776427A, “Methods for targeting the vasculature of solid tumors” (Board of Regents, The University of Texas System, priority 1995, dated 1998)
Entries after “also recorded” stand apart in the source; their conditions may differ. Structures can show the parent of a compound that is named as a salt.

Tested on: Ia^d on colonic endothelium and epithelium
Assay: Ia^d expression and anti-Ia^d antibody localization in the gut of BALB/c nu/nu mice given oral tetracycline-HCl (indirect immunoperoxidase staining)
Assay type: in vivo, mouse
Protocol: BALB/c nu/nu mice were purchased from Simonsen (Gilroy, Calif.). SCID mice were from the UT Southwestern Medical Center breeding colony. All animals were maintained in microisolation units on sterilized food and water. Where indicated, tetracycline-HCI (Vedeo, St. Joseph, Mo.) was added to drinking water to a final concentration of 1.1 mg/ml (Harkness et al., 1983). Both strains carry the H-2^d haplotype.
For the establishment of solid tumors, a total of 2×10^7 C1300 or C1300 (Muγ) cells, or a mixture of the two, in 200 μl MEM-30% FCS were injected subcutaneously into the right anterior flank of BALB/c nu/nu or SCID mice. Tumor diameters were measured at regular intervals and the animals were euthanized after 16 days (rapidly-growing tumors) or 20 days (slowly-growing tumors). Tumors and normal tissues were excised immediately and snap-frozen over liquid nitrogen. Normal tissues were also harvested from non-tumor-bearing animals. Antibody localization studies were performed in animals bearing 1 cm subcutaneous tumors induced by injection of C1300 and C1300 (Muγ) in the ratio 7:3. One hundred micrograms of unconjugated M5/114 or CAMPATH-2 antibodies or 100 μg biotinylated 11-4.1 or WT-1 antibodies in 100 μl PBS were injected intravenously. At various times thereafter the animals were euthanized and their circulation was flushed with PBS for 5 minutes before removal and freezing of tumors and normal tissues as before. […] frozen sections were cut on a Tissuetek 2 cryostat (Baxter) and air-dried for 2 hours at room temperature. Slides were stored at -20° C. for up to 3 months before assay.
Indirect immunoperoxidase staining for rat IgG was adapted from a method described by Billington et al. (1986). Sections were allowed to return to room temperature, air dried for 30 minutes and fixed in acetone for 15 minutes. After rehydration in PBS for 5 minutes, sections were incubated in a humidified chamber for 45-60 minutes with primary antibodies, diluted optimally in PBS-0.2% BSA, (PBS-BSA). […]

## CN(C)[C@@H]1C(O)=C(C(N)=O)C(=O)[C@@]2(O)C(O)=C3C(=O)c4c(O)cccc4[C@@](C)(O)[C@H]3C[C@@H]12 [tetracycline-Hcl, tetracycline-HCI]
Oral administration before antibody injection
  localization of intravenously-injected anti-Ia^d antibody to colonic endothelial cells: abolished localization
oral, 1-3 weeks
  Ia^d expression in the colon and elsewhere in the gut: progressive diminution; also recorded: diminished Ia^d expression
  numbers of intravillous CD3-positive cells: dramatic decrease
